Entries after “also recorded” stand apart in the source; their conditions may differ.
Experiments:
[1] = system: degron tag-eGFP fusion protein in HEK293T cells; test: Compound-dependent degradation of degron-eGFP fusion, eGFP/mCherry ratio; type: cell-based; conditions: 20-hour treatment
Description: To test compound-dependent degradation of the designed degron tags, a fusion protein of the tags and enhanced green fluorescence protein (eGFP) was stably expressed in HEK293T cells using a lentiviral vector. As an internal control, the cells also expressed an untagged mCherry protein downstream of the same promoter as degron-eGFP separated by an internal ribosomal entry site. […] A lower value of eGFP/mCherry at the same compound concentration indicates a higher rate of degradation. Designed degrons have higher degradation at low doses of aryl-sulfonamides and also lower IC50 values.

[2] = biological target: T1, DDB1ΔB-DCAF15biotin and BodipyFL-RBM39RRM2 (Homo sapiens, UniProt Q14498+Q66K64); test: TR-FRET RBM39RRM2 recruitment assay: titration of compound; type: binding; conditions: BodipyFL-RBM39RRM2-WT 200 nM, DCAF15 200 nM; read-out: EC50 of DCAF15-RBM39RRM2 complex formation
T1 construct: Full-length human DCAF15 was used in all TR-FRET assays; RBM39RRM2 (245-332), and RBM23RRM2 (263-341); made in house; host or cells: Trichoplusia ni High Five insect cells (baculovirus)
Protocol: (§1) Titrations of compounds to induce DCAF15-RBM39 or DCAF15-RBM23 complex were carried out by mixing 200 nM biotinylated Strep II Avi-tagged DCAF15, 200 nM BodipyFL-labeled RBM39 or RBM23 variants, and 2 nM terbium-coupled streptavidin (Invitrogen™) in an assay buffer containing 50 mM Tris pH 8.0, 200 mM NaCl, 0.1% Pluronic F-68 solution (Sigma®), and 0.5% BSA (w/v). Full-length human DCAF15 was used in all TR-FRET assays. After dispensing the assay mixture, increasing concentrations of compounds were dispensed in a 384-well microplate (Corning, 4514) using a D300e Digital Dispenser (HP) normalized to 2% DMSO. Before TR-FRET measurements were conducted, the reactions were incubated for 15 min at room temperature. After excitation of terbium fluorescence at 337 nm, emission at 490 nm (terbium) and 520 nm (BodipyFL) were recorded with a 70 μs delay over 600 μs to reduce background fluorescence, and the reaction was followed over 60 cycles of each data point using a PHERAstar® FS microplate reader (BMG Labtech). The TR-FRET signal of each data point was extracted by calculating the 520/490 nm ratio. The half-maximal effective concentration EC50 values calculated using [Agonist] vs response (three parameters) equation in GraphPad Prism® 7.

DDB1ΔB-DCAF15biotin = biological target: T2, DDB1ΔB-DCAF15biotin (Homo sapiens, UniProt Q66K64); test: TR-FRET competition assay: displacement of BodipyFL-E7820 by aryl-sulfonamides; type: binding; conditions: for DCAF15 binding relative to E7820: competitive binding assay
T2 construct: Full-length human DCAF15 was used in all TR-FRET assays; made in house; host or cells: Trichoplusia ni High Five insect cells (baculovirus)
Description: The 520/490 nm ratios from the sample with DCAF15 was subtracted by the ratios from the sample without DCAF15, and the subtracted values were plotted to calculate the Kd values estimated using One site-Specific binding equation in GraphPad Prism® 7. All TR-FRET results are plotted as means±s.d. from three independent replicates (n=3) unless otherwise indicated.

[3] = biological target: T3, DDB1ΔB-DCAF15biotin / RBM39RRM2 (Homo sapiens, UniProt Q14498+Q66K64); test: TR-FRET DCAF15-RBM39 dimerization assay: titration of BodipyFL-RBM39RRM2 to DDB1ΔB-DCAF15biotin with aryl-sulfonamide; type: binding; conditions: compound at 50 μM; DDB1ΔB-DCAF15biotin without DDA1; read-out: KD^app of RBM39RRM2 for DDB1ΔB-DCAF15 in the presence of compound
T3 construct: Full-length human DCAF15 was used in all TR-FRET assays; RBM39RRM2 (245-332), and RBM23RRM2 (263-341); made in house; host or cells: Trichoplusia ni High Five insect cells (baculovirus)
Protocol: Time-Resolved Fluorescence Resonance Energy Transfer (TR-FRET)
(§2) Titrations of BodipyFL-RBM39 were carried out by mixing 400 nM biotinylated Strep II Avi-tagged DCAF15 variants, 100 μM compounds or equivalent volume of DMSO, and 4 nM terbium-coupled streptavidin in the same assay buffer. After dispensing the assay mixture, increasing concentration of BodipyFL-RBM39 was added to the compound-bound DCAF15 in a 1:1 volume ratio and incubated for 15 min at room temperature. The 520/490 nm ratios were plotted to calculate the Kd values estimated using One site-Specific binding equation in GraphPad Prism® 7.

RBM39RRM2-biotin = biological target: T4, RBM39RRM2-biotin (Homo sapiens, UniProt Q14498); test: TR-FRET titration of BodipyFL-E7820 probe to RBM39RRM2-biotin; type: binding; conditions: RBM39RRM2-biotin alone
T4 construct: RBM39RRM2 (245-332), and RBM23RRM2 (263-341); made in house; host or cells: Trichoplusia ni High Five insect cells (baculovirus)
T4 sequence (Q14498 245-332): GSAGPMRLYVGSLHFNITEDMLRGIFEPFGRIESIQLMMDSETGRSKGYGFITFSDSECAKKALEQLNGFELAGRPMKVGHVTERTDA

[4] = biological target: T5, DDB1ΔB-DCAF15 and BodipyFL-RBM39RRM2-G268V (Homo sapiens, UniProt Q14498+Q66K64, G268V); test: TR-FRET recruitment assay with the RBM39RRM2 G268V mutant: titration of E7820; type: binding; conditions: BodipyFL-RBM39RRM2-G268V 200 nM, E7820 0.002-33 μM
T5 construct: RBM39RRM2 (245-332), and RBM23RRM2 (263-341); made in house; host or cells: Trichoplusia ni High Five insect cells (baculovirus)
Protocol: as §1

[5] = system: DDB1ΔB-DCAF15biotin-DDA1 / RBM39RRM2; test: TR-FRET titration of BodipyFL-RBM39RRM2 to the DDA1-containing complex with E7820; type: binding, human; conditions: with versus without DDA1
Protocol: as §2

Kelly cells = test: TMT quantification mass spectrometry proteomics (degradome of E7820); type: cell-based; conditions: E7820 10 μM, 5 h
Protocol: Treated Kelly cells were washed in PBS (Corning VWR, Radnor PA, USA) and collected at 3000 g centrifugation. Sample preparation and LC-MS analysis for whole proteome identification of novel E7820-dependent substrates was performed as described previously (Donovan et al., Elife 7:38430 (2018)).

DDB1ΔB-DCAF15biotin-DDA1 = test: TR-FRET titration of BodipyFL-E7820 probe to the DDA1-containing complex; type: binding, human; conditions: with versus without DDA1
Protocol: Titrations of BodipyFL-E7820 (4) were carried out by mixing 200 nM biotinylated Strep II Avi-tagged DCAF15 variants or equivalent volume of the assay buffer, 2 nM terbium-coupled streptavidin in the same assay buffer. After dispensing the assay mixture, increasing concentration of BodipyFL-E7820 (4) was dispensed in the 384-well plate using D300e normalized to 2% DMSO, and then incubated for 15 min at room temperature. The 520/490 nm ratios from the sample with DCAF15 was subtracted by the ratios from the sample without DCAF15, and the subtracted values were plotted to calculate the Kd values estimated using One site-Specific binding equation in GraphPad Prism® 7. All TR-FRET results are plotted as means±s.d. from three independent replicates (n=3) unless otherwise indicated.

[6] = biological target: T6, DDB1ΔB-DCAF15split and BodipyFL-RBM39RRM2 (Homo sapiens, UniProt Q14498+Q66K64); test: TR-FRET recruitment assay with DCAF15split: titration of E7820; type: binding; conditions: E7820 0.002-33 μM, proteins at 200 nM
T6 construct: DCAF15 NTD (30-264), DCAF15 CTD (383-600); RBM39RRM2 (245-332), and RBM23RRM2 (263-341); Strep II Avi (N); made in house; host or cells: Trichoplusia ni High Five insect cells (baculovirus)

RBM39 in HEK293T cells = biological target: T7, RBM39 in HEK293T cells (Homo sapiens, UniProt Q14498+Q66K64); test: Cellular degradation of endogenous RBM39, western blot; type: cell-based; conditions: 500 nM E7820, HEK293T, 6 h
T7 construct: cellular degradation of endogenous RBM39; endogenous in cells; host or cells: HEK293T
Protocol: FIG. 7A-FIG. 7G are a series of cartoon representations, graphs, and structures depicting the biochemical characterization of DCAF15 binding to aryl-sulfonamides and RBM39RRM2. FIG. 7A is a schematic representation of TR-FRET-based DCAF15-RBM39 dimerization assay. FIG. 7B is a graph of TR-FRET for the titration of BodipyFL-RBM39RRM2 (0.02-20 μM) to DDB1ΔB-DCAF15biotin at 200 nM in the absence (DMSO) or presence of aryl-sulfonamides at 50 μM. Data is plotted as means±s.d. from three independent replicates (n=3). […] FIG. 7D is a schematic representation of TR-FRET-based DCAF15 binding assay. Compound 4 is titrated to the DDB1ΔB-DCAF15biotin, and the probe is displaced by competitor compounds. FIG. 7E is the chemical structure of BodipyFL-E7820 (4). […] Data is plotted as means±s.d. from three independent replicates (n=3). FIG. 7G is an immunoblot showing cellular degradation of endogenous RBM39. […] Shown is the uncropped blot with molecular size markers. The positions of RBM39 and GAPDH are indicated, and the asterisk marks a non-specific band. Quantitation of RBM39 and GAPDH bands was performed with the LI-COR imaging system, and % RBM39 is calculated as [RBM39 intensity/GAPDH intensity].

| Kd [3] | Binding to RBM39RRM2 (RBM39RRM2-biotin) | RBM39RRM2 recruitment to DCAF15 with Gly268Val mutation [4] | DCAF15-RBM39 dimerization, DCAF15split versus full length DCAF15 [6] | Degradation of RBM39 in cells (RBM39 in HEK293T cells) | Structure (SMILES) | Degradation of designed degron tag-eGFP (eGFP/mCherry ratio) [1] | EC50 [2] | DCAF15 binding relative to E7820 (DDB1ΔB-DCAF15biotin) | Strengthening of apparent affinity to RBM39RRM2 by DDA1 [5] | Proteins degraded out of ~11,000 proteins detected (Kelly cells) | Effect of DDA1 on the affinity of E7820 to DCAF15 (DDB1ΔB-DCAF15biotin-DDA1) | Ki (DDB1ΔB-DCAF15biotin; DDB1ΔB-DCAF15biotin 200 nM, BodipyFL-E7820 5 μM, aryl-sulfonamides 0.002-100 μM, read-out: Ki for DCAF15) |
| --- | --- | --- | --- | --- | --- | --- | --- | --- | --- | --- | --- | --- |
| 3.5 µM | – | – | – | – | O=C(NS(=O)(=O)c1ccc(Br)s1)c1ccc(Cl)cc1Cl [tasisulam] | dose-dependent degradation | > 10 µM | significant loss in affinity for DCAF15 | – | – | – | – |
| – | not with RBM39 | completely abrogated | equivalent binding | potently degraded | Cc1ccc(NS(=O)(=O)c2cccc(C#N)c2)c2[nH]cc(C#N)c12 [E7820] | – | – | – | ~3 fold | only RBM23 to be degraded in addition to RBM39 | not altered | – |
| – | – | – | – | – | NS(=O)(=O)c1ccc(S(=O)(=O)Nc2cccc3c(Cl)c[nH]c23)cc1 [indisulam] | dose-dependent degradation | 3.2 µM | significant loss of DCAF15 binding; also recorded: significant loss in affinity for DCAF15 | – | – | – | > 50 µM |
